Test results published in article PMC10487843, “Evaluation of Anticancer and Anti-Inflammatory Activities of Some Synthetic Rearranged Abietanes” (International Journal of Molecular Sciences, 2023).
≈ marks a conversion by molar mass, not a printed value. Like-named read-outs stand apart in the source and are kept apart here.

Key:
[1] = system: human colon adenocarcinoma (HT29); test: MTT cell viability assay, HT29; format: cell-based; settings: for IC80: 80% growth inhibition
Description: In this study, we employed the MTT (3-(4,5-dimethyl thiazol-2-yl)-2,5-diphenyltetrazolium bromide) colorimetric assay to evaluate the cytotoxic activity of selected abietanes (compounds 5, 7, 13, 17, and 19) against three tumor cell lines: human colon adenocarcinoma (HT29), human hepatocarcinoma (HepG2), and murine melanoma (B16–F10). The MTT assay relied on the conversion of MTT to formazan by viable cells, with the formazan concentration proportional to the number of viable cells. The concentrations required for 50 and 80% growth inhibition (IC50 and IC80) were determined for each compound.
The human colorectal adenocarcinoma cell line HT29 (ECACC no. 9172201; ATCC no. HTB-38), the human hepatocarcinoma cell line HepG2 (ECACC no. 85011430), the mouse melanoma cells B16–F10 (ATCC no. CRL-6475), and the murine monocyte/macrophage like RAW 264.7 cell line (ATCC no, TIB-71) were obtained from the cell bank of the University of Granada, Spain. The tumor cell lines were cultured in DMEM (Dulbecco’s modified Eagle’s medium) supplemented with 2 mM glutamine, 10% heat-inactivated FCS (fetal calf serum), and 50 μg/mL of gentamicin (for all cancer cell lines). The RAW 264.7 cell line was cultured in RPMI1640 medium, supplemented with 2 mM glutamine, 10% heat-inactivated FCS, and 50 μg/mL of gentamicin. All cell lines were incubated at 37 °C, in an atmosphere of 5% CO2 and 95% humidity. The culture media were changed every 48 h, and the confluent cultures were separated with a trypsin solution (0.25% EDTA). In all experiments, monolayer cells were grown to 80–90% confluence in sterile cell culture flasks.
The effects of the compounds on the cell viability were established using the MTT method (Sigma, St. Louis, MO, USA). The cytotoxicity of the compounds was assessed by measuring the absorbance of MTT dye staining of metabolically competent cells. The cells were cultivated in 96-well plates at 6.0 × 10^3 cells/mL for the HT29 and RAW 264.7 cell lines, at 5.0 × 10^3 cells/mL for B16–F10 cells, and 15.0 × 10^3 cells/mL for the HepG2 cell line, with a final volume of 200 μL per well being incubated with the different products (0–100 μg/mL). After 72 h, 100 μL of MTT solution (0.5 mg/mL) in 50% of PBS and 50% of the medium was added to each well. Following incubation for 1.5 h, formazan was resuspended in 100 μL of DMSO, and each concentration was tested in triplicate. The cell viability relative to the untreated control cells was determined by measuring the absorbance at 570 nm using an ELISA plate reader (Tecan Sunrise MR20–301, TECAN, Grödig, Austria).

HT29 cells [2] = test: HT29 cell cycle analysis (PI flow cytometry); format: cell-based, human; settings: HT29, 72 h
Protocol: Flow cytometry was employed to assess the impact of compounds 5 and 13 on the cell cycle profiles of HT29 cells after 72 h of treatment; by using propidium iodide (PI) incorporation, whose fluorescence directly correlated with DNA content, we analyzed the distribution of cells in different cell cycle phases.
The amount of DNA in the different phases of the cell cycle (G0/G1, S, and G2/M) was quantified using flow cytometry after staining with propidium iodide (PI). HT29 cells were seeded at a density of 5 × 10^4 cells per well in 24-well plates containing 1.5 mL of culture medium. […] Next, the cells were washed twice with PBS, trypsinized, and resuspended in 1 × TBS (10 mM Tris and 150 mM NaCl). After this, Vindelov buffer (100 mM Tris, 100 mM NaCl, 10 mg/mL Rnase, 1 mg/mL PI, and 0.1% Triton x-100, pH 8) was added. Finally, the cells were kept on ice and stained with 20 μL of 1 mg/mL PI solution before being measured. Each experiment analyzed approximately 10 × 10^3 cells. The experiments were performed twice, each with three replications per assay. The samples were analyzed using a flow cytometer, and the number of cells in each stage of the cell cycle was estimated by […] cell sorting (FACS) at 488 nm in an Epics XL flow cytometer (Coulter Corporation, Hialeah, FL, USA).

HT29 cells [3] = test: Annexin V-FITC/PI flow cytometry apoptosis analysis; format: cell-based, human; settings: HT29, 72 h; for total apoptosis, % of cell population: control 9%
Description: To further investigate the potential mechanisms underlying the cytotoxic and cytostatic effects of compounds 5 and 13 on HT29 cells, Annexin V–FITC/PI double staining along with […] cell sorter (FACS) cytometry analysis was employed for determinate apoptosis induction. This assay allowed for the distinction of different cell populations, including normal cells (Annexin V− PI−), early apoptotic cells (Annexin V+ PI−), late apoptotic cells (Annexin V+ PI+), and necrotic cells (Annexin V− PI+).
These assays on the HT29 cell line were conducted 72 h after treatment with the selected rearranged abietanes at their corresponding IC50 and IC80 concentrations.
Flow cytometry was used to detect annexin V-FICT and PI double staining, to quantify the pro-apoptotic impact of compounds 5 and 13. Apoptosis was assessed through flow cytometry using a FACScan flow cytometer (Coulter Corporation, Hialeah, FL, USA). In this assay, 5 × 10^4 HT29 cells were plated in 24-well plates with 1.5 mL of medium and incubated for 24 h. The cells were then treated with the selected compounds in triplicate for 24, 48, and 72 h at their corresponding IC50 and IC80 concentrations. The cells were harvested and resuspended in a binding buffer (10 mM HEPES/NaOH with pH 7.4, 140 mM NaCl, and 2.5 mM CaCl2). Subsequently, Annexin V-FITC conjugate (1 µg/mL) was added and incubated for 15 min in the dark at room temperature. The cells were stained with 5 µL of 1 mg/mL PI solution before analysis. Approximately 10 × 10^3 cells were analyzed in each experiment; the experiments were performed twice, each with three replications per assay.

HT29 cells [4] = test: Mitochondrial membrane potential by flow cytometry (Rh123/DHR); format: cell-based, human; settings: HT29, 72 h
Description: Apoptotic effects induced by anticancer agents can be mediated through two major pathways: intrinsic and extrinsic apoptotic pathways. The intrinsic pathway involves the disruption of the mitochondrial membrane and changes in the mitochondrial membrane potential (MMP), while the extrinsic pathway leads to apoptosis without initial MMP alterations. […] Further investigations are necessary to elucidate the detailed molecular mechanisms underlying their apoptotic effect.
We analyzed the electrochemical gradient across the mitochondrial membrane via analytical flow cytometry, using dihydrorhodamine (DHR). A total of 5 × 10^4 HT29 cells were plated in 24-well plates for this assay. […] Next, the medium was replaced by adding fresh solution with DHR to a final concentration of 5 μg/mL. The cells were incubated at 37 °C for 1 h, washed, and resuspended in PBS with 5 μg/mL of PI. The fluorescence intensity was measured using a FACScan flow cytometer (fluorescence-activated cell sorter). The experiments were performed two times, each with three replications per assay.

[5] = Homo sapiens, HT-29, 72 h, read-out: IC50

| SMILES | IC80 ([1]; Homo sapiens, HT-29, 72 h) | IC50 [1, 5] | increase in the cell population in the S phase compared with the control (HT29 cells [2]; IC50 dose) | increase in the cell population in the S phase compared with the control (HT29 cells [2]; IC80 dose) | early apoptosis, % of cell population (HT29 cells [3]; IC50 concentration) | late apoptosis, % of cell population (HT29 cells [3]; IC50 concentration) | percentage of necrotic cells (HT29 cells [3]; IC50 concentration, control 3%) | total apoptosis, % of cell population (HT29 cells [3]; IC50 concentration) | early apoptosis, % of cell population (HT29 cells [3]; IC80 concentration) | late apoptosis, % of cell population (HT29 cells [3]; IC80 concentration) | total apoptosis, % of cell population (HT29 cells [3]; IC80 concentration) | decrease in positive Rh123-stained cells with regard to untreated control (HT29 cells [4]; IC50 concentration) | decrease in positive Rh123-stained cells with regard to untreated control (HT29 cells [4]; IC80 concentration) | IC50 ([1]; 72 h, listed as Precursor (13)) | increase in the cell population in the S phase compared with the control (HT29 cells [2]; regardless of the administered dose (IC50 and IC80)) |
| --- | --- | --- | --- | --- | --- | --- | --- | --- | --- | --- | --- | --- | --- | --- | --- |
| CC(C)C1=CC2=C(C(=O)C1=O)C1=CC(=O)CC(C)(C)[C@@]1(C)C=C2 [Compound 5, Pygmaeocin B] | 9.73 ± 1.18 µg/mL (≈ 31.3 µM) | 6.69 ± 1.18 µg/mL (≈ 21.6 µM) | 4% | 10% | 5% | 17% | 15% | 22% | 12% | 23% | 35% | 54% | 61% | – | – |
| CC(C)C1=CC2=C(C(=O)C1=O)[C@@]1(C)CCCC(C)(C)[C@@H]1CC2 [Compound 13] | 5.19 ± 0.68 µg/mL (≈ 17.3 µM) | 2.7 ± 0.8 µg/mL (≈ 8.99 µM) | – | – | 6% | 12% | – | 18% | 7% | 14% | 21% | around 40% | 57% | 2.67 ± 0.82 µg/mL (≈ 8.89 µM) | 10% |
